Values quoted from earlier work as cited in PubChem BioAssay AID1259409 (Chemical Carcinogenesis Research Information System (CCRIS), 2018).
“And” between values parts separate entries of the source, which are not always exact repeats. Identical values can stand only once.

System: rodent chemically induced tumor inhibition, incidence and multiplicity
Assay: CCRIS tumor inhibitor studies

O=c1ccc2ccc(O)cc2o1
tumour outcome (control, treated, inhibition, significance) (Carcinogen: 7,12-DIMETHYLBENZ[A]ANTHRACENE, 57-97-6, Dose [Inhibitor]: 0.034 MMOL/G IN DIET FOR 8 D BEGINNING 7 D PRIOR TO CARCINOGEN DOSE (STUDY DURATION: 23 WK), Route [Inhibitor]: ORAL, Species: RAT, Strain/Sex: SPRAGUE-DAWLEY/FEMALE, Target Tissue: Type of Lesion: MAMMARY GLAND: TUMOR, Dose [Carcinogen]: 12 MG IN 1.0 ML OLIVE OIL ONCE, Promoter: NONE USED): 93%, 93%, 0%, not significant
tumour outcome (control, treated, inhibition, significance) (Carcinogen: BENZO[A]PYRENE, 50-32-8, Dose [Inhibitor]: 0.034 MMOL/G IN DIET FOR 5 WK BEGINNING 1 WK PRIOR TO FIRST CARCINOGEN DOSE (STUDY DURATION: 21 WK), Route [Inhibitor]: ORAL, Species: MOUSE, Strain/Sex: ICR/FEMALE, Target Tissue: Type of Lesion: FORESTOMACH: TUMOR, Dose [Carcinogen]: 1 MG IN 0.2 ML CORN OIL 2/WK FOR 4 WK, Promoter: NONE USED): 100%, 95%, 5%, not significant and 90%, 95%,-5%, not significant and 95%, 100%, -5%, not significant
tumour outcome (control, treated, inhibition, significance) (Carcinogen: BENZO[A]PYRENE, 50-32-8, Dose [Inhibitor]: 0.068 MMOL/G IN DIET FOR 5 WK BEGINNING 1 WK PRIOR TO FIRST CARCINOGEN DOSE (STUDY DURATION: 21 WK), Route [Inhibitor]: ORAL, Species: MOUSE, Strain/Sex: ICR/FEMALE, Target Tissue: Type of Lesion: FORESTOMACH: TUMOR, Dose [Carcinogen]: 1 MG IN 0.2 ML CORN OIL 2/WK FOR 4 WK, Promoter: NONE USED): 100%, 95%, 5%, not significant

c1ccc2c(Cc3c[nH]c4ccccc34)c[nH]c2c1
tumour outcome (control, treated, inhibition, significance) (Carcinogen: BENZO[A]PYRENE, 50-32-8, Dose [Inhibitor]: 0.02 MMOL/G DIET DAILY STARTING AT 63 D OF AGE (8 D PRIOR TO START OF CARCINOGEN TREATMENT) THROUGH 98 D OF AGE FOLLOWED, Route [Inhibitor]: ORAL, Species: MOUSE, Strain/Sex: ICR/FEMALE, Target Tissue: Type of Lesion: FORESTOMACH: TUMOR, Dose [Carcinogen]: 1 MG IN 0.2 ML CORN OIL ADMINISTERED 2/WK FOR 4 WK, Promoter: NONE USED): 93%, 94%, -1%, not significant

CCCCCN(CCCCC)C(=O)C(CCC(=O)O)NC(=O)c1ccc(Cl)c(Cl)c1 (stereo unspecified)
tumour outcome (control, treated, inhibition, significance) (Carcinogen: 7,12-DIMETHYLBENZ[A]ANTHRACENE, 57-97-6, Dose [Inhibitor]: 0, 12 MG/KG 2/D FOR 15 D POST CARCINOGEN TREATMENT (STUDY DURATION: 6 MO), Route [Inhibitor]: SUBCUTANEOUS, Species: RAT, Strain/Sex: SPRAGUE-DAWLEY/MALE, Target Tissue: Type of Lesion: PANCREAS: CARCINOMA, Dose [Carcinogen]: 2-3 MG ONCE, Promoter: CAERULEIN, 17650-98-5): 11/15 (73%), 7/15 (47%), 36%, p<0.02
tumour outcome (control, treated, inhibition, significance) (Carcinogen: AZASERINE, 115-02-6, Dose [Inhibitor]: 0, 12 MG/KG BW 1/D 3 D/WK FOR 8 MO BEGINNING 4 MO POST FIRST CARCINOGEN DOSE (STUDY DURATION: 8 MO), Route [Inhibitor]: SUBCUTANEOUS, Species: RAT, Strain/Sex: WISTAR/MALE, Target Tissue: Type of Lesion: PANCREAS: TUMOR, Dose [Carcinogen]: 30 MG/KG ON DAYS 19, 26, AND 54 OF AGE, Promoter: CHOLECYSTOKININ, 9011-97-6): 19/34 (56%), 15/35 (43%), 23%, not significant
tumour outcome (control, treated, inhibition, significance) (Carcinogen: AZASERINE, 115-02-6, Dose [Inhibitor]: 0, 12 MG/KG BW 1/D 30 MIN PRIOR TO PROMOTER DOSE 3 D/WK FOR 8 MO BEGINNING 4 MO POST FIRST CARCINOGEN DOSE (STUDY DURATI, Route [Inhibitor]: SUBCUTANEOUS, Species: RAT, Strain/Sex: WISTAR/MALE, Target Tissue: Type of Lesion: PANCREAS: TUMOR, Dose [Carcinogen]: 30 MG/KG ON DAYS 19, 26, AND 54 OF AGE, Promoter: BOMBESIN, 31362-50-2): 28/37 (76%), 18/32 (56%), 26%, not significant

CC1=CCC(=O)O1
tumour outcome (control, treated, inhibition, significance) (Carcinogen: BENZO[A]PYRENE, 50-32-8, Dose [Inhibitor]: 0.034 MMOL/G IN DIET FOR 5 WK (STUDY DURATION: 21 WK), Route [Inhibitor]: ORAL, Species: MOUSE, Strain/Sex: ICR/HA/FEMALE, Target Tissue: Type of Lesion: FORESTOMACH: TUMOR, Dose [Carcinogen]: 1 MG IN 0.2 ML CORN OIL, 2/WK FOR 4 WK STARTING ON D 8 OF EXPERIMENT, Promoter: NONE USED): 95%, 42%, 56%, p<0.01 and 95%, 53%, 44%, p<0.01

Cc1ccc(O)c(C(C)(C)C)c1
tumour outcome (control, treated, inhibition, significance) (Carcinogen: 7,12-DIMETHYLBENZ[A]ANTHRACENE, 57-97-6, Dose [Inhibitor]: 1.0% IN POWDERED DIET BEGINNING 1 WK POST CARCINOGEN DOSE FOR 51 WK (STUDY DURATION: 52 WK), Route [Inhibitor]: ORAL, Species: RAT, Strain/Sex: SPRAGUE-DAWLEY/FEMALE, Target Tissue: Type of Lesion: EAR DUCT: BENIGN TUMOR, Dose [Carcinogen]: 2.5 MG/100 G BW IN 0.5 ML SESAME OIL ONCE, Promoter: NONE USED): 7/19 (37%), 5/19 (26%), 29%, not calculated
tumour outcome (control, treated, inhibition, significance) (Carcinogen: 7,12-DIMETHYLBENZ[A]ANTHRACENE, 57-97-6, Dose [Inhibitor]: 1.0% IN POWDERED DIET BEGINNING 1 WK POST CARCINOGEN DOSE FOR 51 WK (STUDY DURATION: 52 WK), Route [Inhibitor]: ORAL, Species: RAT, Strain/Sex: SPRAGUE-DAWLEY/FEMALE, Target Tissue: Type of Lesion: MAMMARY GLAND: CARCINOMA, Dose [Carcinogen]: 2.5 MG/100 G BW IN 0.5 ML SESAME OIL ONCE, Promoter: NONE USED): 6/19 (32%), 6/19 (32%), 0%, not significant
tumour outcome (control, treated, inhibition, significance) (Carcinogen: 7,12-DIMETHYLBENZ[A]ANTHRACENE, 57-97-6, Dose [Inhibitor]: 1.0% IN POWDERED DIET BEGINNING 1 WK POST CARCINOGEN DOSE FOR 51 WK (STUDY DURATION: 52 WK), Route [Inhibitor]: ORAL, Species: RAT, Strain/Sex: SPRAGUE-DAWLEY/FEMALE, Target Tissue: Type of Lesion: MAMMARY GLAND: FIBROADENOMA, Dose [Carcinogen]: 2.5 MG/100 G BW IN 0.5 ML SESAME OIL ONCE, Promoter: NONE USED): 15/19 (79%), 2/19 (11%), 87%, p<0.001
